pIC50, pKi: −log10 of the molar value.
Legend:
[1] = molecular target: Serotonin 3 (5-HT3) receptor
Description: Inhibition of 5HT3 receptor (unknown origin)

[2] = Drug uptake in cynomolgus monkey brain treated with WAY-100635 followed by compound 878 Ci/mmol, iv measured at 2.5 mins postinjection by PET imaging relative to control; format: ADME, organism-based, Macaca fascicularis; details: in vivo
[3] = molecular target: T1, 5-hydroxytryptamine receptor 1A (Homo sapiens, UniProt P08908)
T1 sequence (P08908 whole entry): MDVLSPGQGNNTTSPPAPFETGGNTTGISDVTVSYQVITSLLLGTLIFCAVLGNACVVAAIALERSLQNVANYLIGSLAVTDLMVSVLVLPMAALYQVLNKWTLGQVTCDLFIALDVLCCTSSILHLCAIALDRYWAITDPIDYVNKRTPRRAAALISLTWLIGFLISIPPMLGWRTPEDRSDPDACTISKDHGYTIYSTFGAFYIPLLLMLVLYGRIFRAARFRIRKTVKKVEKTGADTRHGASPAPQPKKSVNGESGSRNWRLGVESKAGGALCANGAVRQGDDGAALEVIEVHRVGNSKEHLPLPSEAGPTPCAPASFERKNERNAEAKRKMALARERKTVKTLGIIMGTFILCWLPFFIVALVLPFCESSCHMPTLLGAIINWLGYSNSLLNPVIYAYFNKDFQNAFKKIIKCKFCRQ

[4] = molecular target: T2, 5-hydroxytryptamine receptor 7 (Homo sapiens, UniProt P34969); test: Binding affinity to human recombinant 5-HT7 receptor assessed as inhibition constant
T2 sequence (P34969 whole entry): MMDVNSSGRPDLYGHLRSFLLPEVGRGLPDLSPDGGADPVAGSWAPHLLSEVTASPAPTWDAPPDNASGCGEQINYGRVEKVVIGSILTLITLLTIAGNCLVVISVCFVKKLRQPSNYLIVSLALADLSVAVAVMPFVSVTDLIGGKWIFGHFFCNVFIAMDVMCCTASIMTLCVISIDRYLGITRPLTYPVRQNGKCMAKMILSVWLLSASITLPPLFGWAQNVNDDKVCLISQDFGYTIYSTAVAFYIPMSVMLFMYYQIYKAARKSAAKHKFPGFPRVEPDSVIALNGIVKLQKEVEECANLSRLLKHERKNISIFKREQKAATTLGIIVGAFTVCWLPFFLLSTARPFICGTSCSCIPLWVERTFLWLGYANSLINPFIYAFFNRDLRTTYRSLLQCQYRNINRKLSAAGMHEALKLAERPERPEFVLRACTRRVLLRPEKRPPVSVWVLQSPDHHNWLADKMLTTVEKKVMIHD

[5] = molecular target: T2, 5-hydroxytryptamine receptor 7; test: Binding affinity to human recombinant 5-HT7 receptor expressed in CHO cells assessed as inhibition constant; format: cell-based
[6] = molecular target: T1, 5-hydroxytryptamine receptor 1A; test: Binding affinity to human recombinant 5-HT1A expressed in CHO cells assessed as inhibition constant; format: cell-based
[7] = Drug biodistribution in rat brain incubated for 30 mins by autoradiographic analysis; format: ADME, organism-based; details: in vivo, 0.5 h
[8] = Drug uptake in cynomolgus monkey brain treated with WAY-100635 followed by compound 230 Ci/mmol, iv measured at 2.5 mins postinjection by PET imaging relative to control; format: ADME, organism-based, Macaca fascicularis; details: in vivo
[9] = molecular target: 5-hydroxytryptamine receptor 7 (Rattus norvegicus, UniProt P32305); test: Binding affinity to rat 5-HT7 receptor assessed as inhibition constant
Sequence of 5-hydroxytryptamine receptor 7 (Rattus norvegicus, UniProt P32305) (P32305 whole entry): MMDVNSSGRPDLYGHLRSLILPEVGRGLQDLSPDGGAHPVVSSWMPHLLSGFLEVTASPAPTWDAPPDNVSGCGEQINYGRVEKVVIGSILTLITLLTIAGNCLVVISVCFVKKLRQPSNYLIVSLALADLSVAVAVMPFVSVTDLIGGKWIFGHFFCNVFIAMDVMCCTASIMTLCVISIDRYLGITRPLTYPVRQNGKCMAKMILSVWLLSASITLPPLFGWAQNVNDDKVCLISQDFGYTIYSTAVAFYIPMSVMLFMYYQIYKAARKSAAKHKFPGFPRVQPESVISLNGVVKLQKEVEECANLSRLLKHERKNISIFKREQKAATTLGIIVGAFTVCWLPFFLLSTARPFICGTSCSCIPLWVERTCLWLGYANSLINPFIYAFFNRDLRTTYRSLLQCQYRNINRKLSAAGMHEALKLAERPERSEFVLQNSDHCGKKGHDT

[10] = molecular target: T2, 5-hydroxytryptamine receptor 7; test: Binding affinity to human 5-HT7 receptor expressed in HEK293 cells incubated for 1 hr by 96 microwell plate; format: cell-based; details: filed as agonist
[11] = molecular target: T3, 5-hydroxytryptamine receptor 1A (Rattus norvegicus, UniProt P19327); test: Displacement of [3H]-8-OH-DPAT from Sprague-Dawley rat hippocampal membrane 5HT1A receptor incubated for 10 mins by liquid scintillation analysis; format: cell membranes, Hippocampus
T3 sequence (P19327 whole entry): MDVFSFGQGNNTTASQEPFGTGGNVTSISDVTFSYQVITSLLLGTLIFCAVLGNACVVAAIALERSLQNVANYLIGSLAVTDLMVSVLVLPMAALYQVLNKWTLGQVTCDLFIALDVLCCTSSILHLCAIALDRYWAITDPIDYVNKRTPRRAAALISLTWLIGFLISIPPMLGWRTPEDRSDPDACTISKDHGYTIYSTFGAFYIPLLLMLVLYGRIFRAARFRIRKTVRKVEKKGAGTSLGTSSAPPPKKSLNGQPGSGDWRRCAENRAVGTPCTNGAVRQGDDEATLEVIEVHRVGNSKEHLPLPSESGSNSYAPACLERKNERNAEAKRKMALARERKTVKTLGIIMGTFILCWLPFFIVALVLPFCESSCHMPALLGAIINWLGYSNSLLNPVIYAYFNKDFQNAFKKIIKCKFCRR

[12] = Drug uptake in cynomolgus monkey in brain administered IV measured at 7.5 mins relative to control; format: ADME, tissue-based, Macaca fascicularis; details: in vivo, 0.125 h
[13] = Drug metabolism in plasma (unknown origin) assessed as parent compound remaining measured at 55 mins relative to control; format: ADME; details: read-out: Stability
[14] = Ratio of drug distribution in cynomolgus monkey hippocampus to cerebellum measured at 30 mins postinjection; format: ADME, organism-based, Macaca fascicularis; details: in vivo, 0.5 h
[15] = Ratio of drug uptake in Rhesus monkey frontal cortex to cerebellum; format: ADME, tissue-based, Macaca mulatta, Brain frontal cortex/cerebellum; details: in vivo
[16] = Ratio of drug uptake in Rhesus monkey temporal cortex to cerebellum; format: ADME, tissue-based, Macaca mulatta; details: in vivo
[17] = Ratio of drug uptake in Rhesus monkey raphe to cerebellum; format: ADME, tissue-based, Macaca mulatta; details: in vivo
[18] = Drug metabolism in Rhesus monkey plasma assessed as unmetabolized compound after 3 hrs by TLC analysis; format: ADME, cell-free, Macaca mulatta; details: read-out: Stability
[19] = molecular target: T2, 5-hydroxytryptamine receptor 7; test: Binding affinity to 5-HT7 receptor (unknown origin) assessed as inhibition constant
D(4) dopamine receptor = D(4) dopamine receptor (Homo sapiens, UniProt P21917); test: Binding affinity to D4 receptor (unknown origin) assessed as inhibition constant
Sequence of D(4) dopamine receptor (P21917 whole entry): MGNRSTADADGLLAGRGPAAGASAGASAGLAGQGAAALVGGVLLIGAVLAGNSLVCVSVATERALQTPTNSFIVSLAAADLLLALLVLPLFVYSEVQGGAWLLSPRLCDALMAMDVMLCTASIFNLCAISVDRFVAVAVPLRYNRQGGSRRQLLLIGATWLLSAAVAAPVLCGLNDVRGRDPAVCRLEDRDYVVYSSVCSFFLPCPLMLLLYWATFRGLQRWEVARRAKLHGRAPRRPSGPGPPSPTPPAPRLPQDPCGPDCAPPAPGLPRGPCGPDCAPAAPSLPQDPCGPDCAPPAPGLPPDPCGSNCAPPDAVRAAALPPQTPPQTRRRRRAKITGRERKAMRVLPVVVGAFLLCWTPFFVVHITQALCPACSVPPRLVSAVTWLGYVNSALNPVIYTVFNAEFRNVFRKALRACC

[20] = molecular target: T4, Alpha-1A adrenergic receptor (Homo sapiens, UniProt P35348); test: Binding affinity to alpha 1A adrenergic receptor (unknown origin) assessed as inhibition constant
T4 sequence (P35348 whole entry): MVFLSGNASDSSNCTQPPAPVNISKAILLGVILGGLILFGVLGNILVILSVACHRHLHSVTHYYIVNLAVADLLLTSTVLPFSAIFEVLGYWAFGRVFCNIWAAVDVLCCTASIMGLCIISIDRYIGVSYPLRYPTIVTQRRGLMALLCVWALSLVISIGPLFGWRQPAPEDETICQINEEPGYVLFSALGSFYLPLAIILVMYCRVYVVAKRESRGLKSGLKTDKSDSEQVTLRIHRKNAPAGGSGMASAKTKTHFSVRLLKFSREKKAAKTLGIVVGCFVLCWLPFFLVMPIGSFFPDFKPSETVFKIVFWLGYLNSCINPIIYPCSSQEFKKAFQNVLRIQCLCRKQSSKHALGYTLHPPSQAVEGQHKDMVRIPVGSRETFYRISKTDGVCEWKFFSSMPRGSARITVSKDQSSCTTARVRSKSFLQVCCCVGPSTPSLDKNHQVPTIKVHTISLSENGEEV

[21] = Biodistribution in rat assessed as drug uptake measured as percentage of injected dose per gram of tissue relative to control; format: ADME, organism-based; details: in vivo
[22] = molecular target: 5-hydroxytryptamine receptor 2A (Homo sapiens, UniProt P28223); test: Binding affinity to human 5-HT2A transfected in human tsA201 cells assessed as inhibition constant incubated for 2 hrs by scintillation counter analysis; format: cell-based
Sequence of 5-hydroxytryptamine receptor 2A (P28223 whole entry): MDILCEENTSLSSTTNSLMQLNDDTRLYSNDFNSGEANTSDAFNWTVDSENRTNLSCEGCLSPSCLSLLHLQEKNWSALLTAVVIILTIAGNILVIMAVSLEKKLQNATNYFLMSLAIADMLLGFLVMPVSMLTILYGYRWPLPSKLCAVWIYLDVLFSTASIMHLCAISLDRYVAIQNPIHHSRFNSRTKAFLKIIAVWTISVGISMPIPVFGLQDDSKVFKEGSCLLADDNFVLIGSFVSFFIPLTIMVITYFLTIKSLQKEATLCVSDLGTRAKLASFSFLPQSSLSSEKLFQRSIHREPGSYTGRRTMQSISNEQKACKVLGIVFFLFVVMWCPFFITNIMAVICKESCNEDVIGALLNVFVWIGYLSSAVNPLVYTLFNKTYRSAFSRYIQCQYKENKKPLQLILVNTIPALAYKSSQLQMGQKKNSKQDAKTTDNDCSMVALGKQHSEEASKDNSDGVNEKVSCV

[23] = molecular target: T3, 5-hydroxytryptamine receptor 1A; test: Displacement of [3H]-8-OH-DPAT from rat hippocampal membrane 5HT1A receptor by CEREP assay; format: cell membranes, Hippocampus
[24] = molecular target: Alpha-1A adrenergic receptor (Homo sapiens) (UniProt P35348); test: Binding affinity to alpha 1A adrenergic receptor (unknown origin); details: filed as antagonist

COc1cn2cccc2c(N2CCN(Cc3ccc(F)cc3)CC2)n1
pIC50 [1]: 8.18

CC1(C(=O)N(CCN2CCN(c3ccccc3O[11CH3])CC2)c2ccccn2)CCCCC1
Drug uptake [2]: 3% | pKi [3]: 8.64

Cc1ccc(N2CCN(CCCCC3C(=O)Nc4ccccc43)CC2)cc1 (configuration not stated)
pKi [4]: 8.96

COc1ccccc1N1CCN(CCC[C@H]2CCCN2S(=O)(=O)c2ccccc2F)CC1
pKi [5]: 8.72 | pKi [6]: 8.39

O=S(=O)(c1ccc([18F])cc1)C1CCN(CCc2ccc(F)cc2F)CC1
Drug uptake [7]: > 80%

COc1cccc(N2CCN(CCCCC3C(=O)Nc4ccccc43)CC2)c1 (configuration not stated)
pKi [4]: 8.59

COc1ccccc1N1CCN(CC(C)N(c2ccccn2)[11C](=O)C2CCCCC2)CC1 (racemic)
Drug uptake [8]: 4.8% | pKi [3]: 9.04

CC1(CCCCN2CCN(c3cccc(OCCF)c3)CC2)C(=O)Nc2ccccc21 (configuration not stated)
pKi [9]: 8.25

CCn1cncc1-c1c[nH]c2ccc(OC)cc12
K [10]: 30 nM

Cc1ccc2c(c1O)-c1cccc3c1C(C2)N(C)CC3 (configuration not stated)
pKi [11]: 9.35

COc1ccccc1N1CCN(CCN(C(=O)C2CCCCC2)c2cccc([18F])n2)CC1
Drug uptake [12]: 4.33% | remaining at 55 min [13]: 20% | Ratio [14]: 1.4

COc1ccccc1N1CCN(CCN(C(=O)C2CCC(C[18F])CC2)c2ccccn2)CC1 (configuration not stated)
Ratio [15]: 9 | Ratio [16]: 10 | Ratio [17]: 3.3 | remaining at 3 h [18]: 30%

COc1cccc(N2CCN(CCCCn3ncc(=O)n(C)c3=O)CC2)c1
pKi [19]: 7.89 | pKi (D(4) dopamine receptor): 7.66 | pKi [20]: 8.17 | pKi [3]: 9.82

COc1ccccc1N1CCN(CCC[C@H]2CCCN2S(=O)(=O)c2ccc(F)cc2)CC1
pKi [5]: 8.59 | pKi [6]: 8.17

COc1ccccc1N1CCN(CCCCN(C)C(=O)c2cnc(S[11CH3])n2C)CC1
Drug uptake [21]: 0.37 % ID/g

COc1cc(CCNCc2ccccc2OC)c(OCC[18F])cc1Br
pKi [22]: > 8.92

CCC1(CCCCN2CCN(c3cccc(OCCF)c3)CC2)C(=O)Nc2ccccc21 (configuration not stated)
pKi [9]: 7.89

COc1cc(Br)c(OCC[18F])cc1CCNCc1ccccc1OC
pKi [22]: > 8.92

COc1ccccc1N1CCN(CCCCn2ccnc2SC)CC1
pIC50 [23]: 9.24 | K [24]: 3 nM

From ChEMBL document CHEMBL5108009, “Positron Emission Tomography (PET) Imaging Tracers for Serotonin Receptors” (J Med Chem, 2022)
